Laboratory results published in patent publication US5091379A, “Topical antinflammatory compositions with minimal systemic absorption” (Du Pont Merck Pharmaceutical Company, priority 1989, dated 1992).
Several values for one entry are separate records, joined by “and”; a condition that tells them apart may be missing. Identical values can stand only once.

Experiments:
[1] = In vivo absorption: excretion of radioactivity in rat urine and feces; set-up: species or system Male Sprague-Dawley rats; conditions: for Percent of Dose Excreted in Feces / Percent of Dose Excreted in Urine / Percent of Dose Excreted, Total: IV 5 mg/kg
Procedure: Approximately 10 mg of 14C-2-phenylmethyl-1-naphthol and 4.99 g of unlabeled 2-phenylmethyl-1-naphthol were used in the preparation of a 100 g 5% ointment or cream. The ointment was a PEG-based ointment and the cream was an oil-in-water emulsion. The specific activities for the ointment and cream were 2.71 and 2.78 uCi/g, respectively. An IV dosing solution (2.5 mg/mL) was prepared prior to dose administration by dissolving radiolabeled 14C-2-phenylmethyl-1-naphthol and unlabeled compound (1:1.5 ratio) in a PEG 400/water (60/40 v/v) solution.
Male Sprague-Dawley rats weighing 240-300 g were used for the studies. Sixteen rats were shaved on the back one day prior to the treatment. Eight of the rats had the application site abraded by a diamond-tipped marker (2 parallel lines and 2 interceding lines). The abrasion penetrated only the stratum corneum, but not the dermis. A 0.5 g dose of 14C-2-phenylmethyl-1-naphthol ointment or cream was applied to an area of approximately 4 cm^2 on 4 nonabraded and 4 abraded rats. The treatment site was covered with gauze and occluded with a dental dam. It was further secured by micropore tape and a strip of adhesive elastoplast. Each rat was placed in an open metabolism cage. […] Four other rats weighing 270-320 g were given an intravenous dose.
In order to determine the percent of dose in the ointment or cream that was absorbed percutaneously into the systemic circulation, an IV dose of 14C-2-phenylmethyl-1-naphthol was given to rats. The total radioactivity excreted after the IV dose serves as a reference for evaluation of topical absorption. […] The reason for the low radioactivity recovery is unknown. The percutaneous absorption from the ointment was about 2% of the applied dose. On the other hand, absorption from the cream was much higher and was about 28% of the dose.

[2] = In vitro penetration through (inflammed) hairless mouse skin; type: in vitro ADME; conditions: Study I, 25 mg/0.1 ml acetone
Procedure: The acetone vehicles were allowed to dry. […] The donor chamber was sealed with parafilm.
Studies were performed in which skin inflammation was induced in hairless mice in vivo, and permeability of that skin was evaluated in vitro. The three studies differed in the methods of producing inflammation. A non-inflammed control was run for each. The formulations tested were the oil/water cream and PEG ointment containing excipients (See Table 2) as in the previous example. There was no difference between the control and inflammed skin in active compound flux in all studies and for all formulations, except study II with 5% cream. […] As with human skin, acetone and cream vehicles consistently gave higher skin penetration rates than the PEG ointment.

5-lipoxygenase = conditions: cited from earlier work
AA-induced edema = assay: AA-induced ear edema, topical antiinflammatory activity; type: in vivo, Male CF1 mice; conditions: for % Inhibition: 3 h pretreatment
Procedure: The AA model was also used to evaluate and compare PEG ointment formulations containing 2-phenylmethyl-1-naphthol with oil/water cream formulations containing 2-phenylmethyl-1-naphthol. These comparisons are illustrated in Examples 5 to 7.
Male 18-20 gram CF1 mice were used in these experiments. AA was made up fresh daily in acetone at a concentration of about 100 mg/ml. 10 μl of the AA solution (1 mg AA) was applied to the inner surface of the ear to induce swelling. […] Control animals were pretreated about 3 hours before AA application with placebo vehicles (drug free ointment or cream) with 5 mg of vehicle applied to both ears. Drug-treated animals were pretreated about 3 hours before AA application with 5 mg of the vehicle containing active drug, applied to both ears. AA was applied to 1 ear of each mouse. One hour after AA challenge, the animals were euthanized by cervical dislocation and both ears were removed. 6 mm disks were then taken using a skin biopsy punch and weighed. Swelling was determined as the difference between the weights of the AA and vehicle treated ears. Percent inhibition of swelling was calculated as follows: [formula]
Table 7 summarizes the data for PEG ointment and oil/water cream formulations containing various concentrations of active compound. Each data point is the average of 2 experiments with 10 animals per treatment cell.

[3] = Hydrolysis of 2 to 3 in solution and during skin penetration; type: physicochemical

## Oc1c(Cc2ccccc2)ccc2ccccc12 [14C-1, 14C-2-phenylmethyl-1-naphthol]
[1]; individual rats, 5 mg/kg
  Percent of Dose Excreted in Feces: 38.86% and 38.32% and 40.39% and 37.91%
  Percent of Dose Excreted in Urine: 8.55% and 7.84% and 8.96% and 8.74%
  Percent of Dose Excreted, Total: 47.41% and 46.16% and 49.35% and 46.65%
[1]; mean of 4 rats
  Percent of Dose Excreted in Feces: 38.87%
  Percent of Dose Excreted in Urine: 8.52%
  Percent of Dose Excreted, Total: 47.39%
[1]; from PEG ointment, percent of applied dose
  percutaneous absorption: about 2%
[1]; from cream, percent of dose
  percutaneous absorption: about 28%
[1]; topical ointment or cream, daily collection
  detectable radioactivity in the urine: no detectable radioactivity was found in the urine

## Oc1c(Cc2ccccc2)ccc2ccccc12 [compound 1, 2-(phenylmethyl)-1-naphthol]
[2]; AA inflammed skin
  Lag Time: 13.8 ± 1.3 h
[2]; control skin
  Lag Time: 10.8 ± 1.7 h
5-lipoxygenase
  inhibition of 5-lipoxygenase: exceptionally potent inhibitors of 5-lipoxygenase
AA-induced edema; PEG ointment, 0.5% 1
  % Inhibition: 15%
AA-induced edema; PEG ointment, 1% 1
  % Inhibition: 62%
AA-induced edema; PEG ointment, 5% 1
  % Inhibition: 70%
AA-induced edema; PEG ointment, 10% 1
  % Inhibition: 90%
AA-induced edema; cream, 0.5% 1
  % Inhibition: 26%
AA-induced edema; cream, 1% 1
  % Inhibition: 60%
AA-induced edema; cream, 5% 1
  % Inhibition: 86%
AA-induced edema; cream, 10% 1
  % Inhibition: 87%
AA-induced edema; mouse, in vivo
  inhibiting the edema induced by topical arachidonic acid: very potent in inhibiting the edema

## CC(=O)Oc1c(Cc2ccccc2)ccc2c1ccn2C [compound 2, 1-methyl-4-acetoxy-5-phenylmethyl indole]
[3]
  hydrolysis: hydrolyzes to 1-methyl-4-hydroxy-5-phenylmethyl indole (3)
